The text below walks through data of ChEMBL document CHEMBL3393012, “Osteoprotective effect of geraniin against ovariectomy-induced bone loss in rats” (Bioorg Med Chem Lett, 2015).

Type in all cases: functional, organism-based
For experiment [1], the system named is Rattus norvegicus. The experiment is described as follows: Antiosteoporotic effect in OVX-induced Wistar rat osteoporosis model assessed as increase in serum calcium level at 1 mg/kg/day, ig administered for 2 weeks by colorimetric method relative to control.
Experiment [2] deals with Rattus norvegicus. Description: Antiosteoporotic effect in OVX-induced Wistar rat osteoporosis model assessed as decrease in serum ALP level at 1 mg/kg/day, ig administered for 2 weeks by colorimetric method relative to control.
The test system of experiment [3] is Rattus norvegicus. The experiment is described as follows: Antiosteoporotic effect in OVX-induced Wistar rat osteoporosis model assessed as decrease in serum TRAP level at 1 mg/kg/day, ig administered for 2 weeks by colorimetric method relative to control.
Experiment [4] concerns Rattus norvegicus. Description: Antiosteoporotic effect in OVX-induced Wistar rat osteoporosis model assessed as increase in serum estradiol level at 1 mg/kg/day, ig administered for 2 weeks by RIA relative to control.
Experiment [5] deals with Rattus norvegicus. The experiment is described as follows: Antiosteoporotic effect in OVX-induced Wistar rat osteoporosis model assessed as increase in serum calcitonin level at 1 mg/kg/day, ig administered for 2 weeks by RIA relative to control.
The subject of experiment [6] is Rattus norvegicus. The experiment is described as follows: Antiosteoporotic effect in OVX-induced Wistar rat osteoporosis model assessed as decrease in serum CTX level at 1 mg/kg/day, ig administered for 2 weeks by ELISA relative to control.
Experiment [7] deals with Rattus norvegicus. The experiment is described as follows: Antiosteoporotic effect in OVX-induced Wistar rat osteoporosis model assessed as decrease in urinary DPD/Cr level at 1 mg/kg/day, ig administered for 2 weeks by ELISA relative to control. The settings on record: Urine.
Experiment [8] deals with Rattus norvegicus. Description: Antiosteoporotic effect in OVX-induced Wistar rat osteoporosis model assessed as increase in femur wet weight at 1 mg/kg/day, ig administered for 2 weeks relative to control.
Experiment [9] relates to Rattus norvegicus. Description: Antiosteoporotic effect in OVX-induced Wistar rat osteoporosis model assessed as increase in femur dry weight at 1 mg/kg/day, ig administered for 2 weeks relative to control.
Experiment [10] concerns Rattus norvegicus. The experiment is described as follows: Antiosteoporotic effect in OVX-induced Wistar rat osteoporosis model assessed as increase in femur ash weight at 1 mg/kg/day, ig administered for 2 weeks relative to control.
The test system of experiment [11] is Rattus norvegicus. Description: Antiosteoporotic effect in OVX-induced Wistar rat osteoporosis model assessed as increase in bone calcium content at 1 mg/kg/day, ig administered for 2 weeks by flame atomic absorption spectroscopy relative to control.
The test system of experiment [12] is Rattus norvegicus. The experiment is described as follows: Antiosteoporotic effect in OVX-induced Wistar rat osteoporosis model assessed as increase in bone mineral density of left femur at 1 mg/kg/day, ig administered for 2 weeks by dual-energy X-ray absorptiometry relative to control.
Experiment [13] has as its system Rattus norvegicus. Description: Antiosteoporotic effect in OVX-induced Wistar rat osteoporosis model assessed as increase in bone mineral content of left femur at 1 mg/kg/day, ig administered for 2 weeks by dual-energy X-ray absorptiometry relative to control.
In experiment [14] the test system is Rattus norvegicus. The experiment is described as follows: Antiosteoporotic effect in OVX-induced Wistar rat osteoporosis model assessed as increase in bone mineral density of third lumbar vertebra at 1 mg/kg/day, ig administered for 2 weeks by dual-energy X-ray absorptiometry relative to control.
Experiment [15] concerns Rattus norvegicus. The experiment is described as follows: Antiosteoporotic effect in OVX-induced Wistar rat osteoporosis model assessed as increase in bone mineral content of third lumbar vertebra at 1 mg/kg/day, ig administered for 2 weeks by dual-energy X-ray absorptiometry relative to control.
Experiment [16] has as its system Rattus norvegicus. Description: Antiosteoporotic effect in OVX-induced Wistar rat osteoporosis model assessed as increase in ultimate load of left femur at 1 mg/kg/day, ig administered for 2 weeks by […] relative to control.
Experiment [17] relates to Rattus norvegicus. Description: Antiosteoporotic effect in OVX-induced Wistar rat osteoporosis model assessed as increase in ultimate load of third lumbar vertebra at 1 mg/kg/day, ig administered for 2 weeks by […] relative to control.
The test system of experiment [18] is Rattus norvegicus. Description: Antiosteoporotic effect in OVX-induced Wistar rat osteoporosis model assessed as increase in trabecular thickness in left femur at 1 mg/kg/day, ig administered for 2 weeks by histomorhological analysis relative to control.
Experiment [19] relates to Rattus norvegicus. The experiment is described as follows: Antiosteoporotic effect in OVX-induced Wistar rat osteoporosis model assessed as increase in trabecular number in left femur at 1 mg/kg/day, ig administered for 2 weeks by histomorhological analysis relative to control.
Experiment [20] concerns Rattus norvegicus. The experiment is described as follows: Antiosteoporotic effect in OVX-induced Wistar rat osteoporosis model assessed as decrease in trabecular separation in left femur at 1 mg/kg/day, ig administered for 2 weeks by histomorhological analysis relative to control.
The subject of experiment [21] is Rattus norvegicus. The experiment is described as follows: Antiosteoporotic effect in OVX-induced Wistar rat osteoporosis model assessed as increase in serum calcium level at 20 to 40 mg/kg/day, ig administered for 2 weeks by colorimetric method relative to control.
Experiment [22] relates to Rattus norvegicus. Description: Antiosteoporotic effect in OVX-induced Wistar rat osteoporosis model assessed as increase in serum phosphorus level at 20 to 40 mg/kg/day, ig administered for 2 weeks by colorimetric method relative to control.
Experiment [23] deals with Rattus norvegicus. The experiment is described as follows: Antiosteoporotic effect in OVX-induced Wistar rat osteoporosis model assessed as decrease in serum ALP level at 20 to 40 mg/kg/day, ig administered for 2 weeks by colorimetric method relative to control.
Experiment [24] deals with Rattus norvegicus. Description: Antiosteoporotic effect in OVX-induced Wistar rat osteoporosis model assessed as decrease in serum TRAP level at 20 to 40 mg/kg/day, ig administered for 2 weeks by colorimetric method relative to control.
The subject of experiment [25] is Rattus norvegicus. The experiment is described as follows: Antiosteoporotic effect in OVX-induced Wistar rat osteoporosis model assessed as increase in serum estradiol level at 40 mg/kg/day, ig administered for 2 weeks by RIA relative to control.
Experiment [26] has as its system Rattus norvegicus. Description: Antiosteoporotic effect in OVX-induced Wistar rat osteoporosis model assessed as increase in serum calcitonin level at 40 mg/kg/day, ig administered for 2 weeks by RIA relative to control.
In experiment [27] the test system is Rattus norvegicus. The experiment is described as follows: Antiosteoporotic effect in OVX-induced Wistar rat osteoporosis model assessed as decrease in serum CTX level at 20 to 40 mg/kg/day, ig administered for 2 weeks by ELISA relative to control. On the technique in general: ELISA stands for enzyme-linked immunosorbent assay.
Experiment [28] has as its system Rattus norvegicus. The experiment is described as follows: Antiosteoporotic effect in OVX-induced Wistar rat osteoporosis model assessed as decrease in urinary DPD/Cr level at 20 to 40 mg/kg/day, ig administered for 2 weeks by ELISA relative to control. The conditions noted are these: Urine.
Experiment [29] relates to Rattus norvegicus. The experiment is described as follows: Antiosteoporotic effect in OVX-induced Wistar rat osteoporosis model assessed as increase in femur wet weight at 40 mg/kg/day, ig administered for 2 weeks relative to control.
Experiment [30] has as its system Rattus norvegicus. The experiment is described as follows: Antiosteoporotic effect in OVX-induced Wistar rat osteoporosis model assessed as increase in femur dry weight at 40 mg/kg/day, ig administered for 2 weeks relative to control.
The test system of experiment [31] is Rattus norvegicus. The experiment is described as follows: Antiosteoporotic effect in OVX-induced Wistar rat osteoporosis model assessed as increase in femur ash weight at 40 mg/kg/day, ig administered for 2 weeks relative to control.
Experiment [32] relates to Rattus norvegicus. The experiment is described as follows: Antiosteoporotic effect in OVX-induced Wistar rat osteoporosis model assessed as increase in bone calcium content at 40 mg/kg/day, ig administered for 2 weeks by flame atomic absorption spectroscopy relative to control.
Experiment [33] relates to Rattus norvegicus. Description: Antiosteoporotic effect in OVX-induced Wistar rat osteoporosis model assessed as increase in bone mineral density of left femur at 20 to 40 mg/kg/day, ig administered for 2 weeks by dual-energy X-ray absorptiometry relative to control.
The test system of experiment [34] is Rattus norvegicus. Description: Antiosteoporotic effect in OVX-induced Wistar rat osteoporosis model assessed as increase in bone mineral content of left femur at 20 to 40 mg/kg/day, ig administered for 2 weeks by dual-energy X-ray absorptiometry relative to control.
The subject of experiment [35] is Rattus norvegicus. The experiment is described as follows: Antiosteoporotic effect in OVX-induced Wistar rat osteoporosis model assessed as increase in bone mineral density of third lumbar vertebra at 20 to 40 mg/kg/day, ig administered for 2 weeks by dual-energy X-ray absorptiometry relative to control.
Experiment [36] concerns Rattus norvegicus. The experiment is described as follows: Antiosteoporotic effect in OVX-induced Wistar rat osteoporosis model assessed as increase in bone mineral content of third lumbar vertebra at 20 to 40 mg/kg/day, ig administered for 2 weeks by dual-energy X-ray absorptiometry relative to control.
For experiment [37], the system named is Rattus norvegicus. Description: Antiosteoporotic effect in OVX-induced Wistar rat osteoporosis model assessed as increase in ultimate load of left femur at 20 to 40 mg/kg/day, ig administered for 2 weeks by […] relative to control.
The test system of experiment [38] is Rattus norvegicus. The experiment is described as follows: Antiosteoporotic effect in OVX-induced Wistar rat osteoporosis model assessed as increase in ultimate load of third lumbar vertebra at 20 to 40 mg/kg/day, ig administered for 2 weeks by […] relative to control.
The subject of experiment [39] is Rattus norvegicus. Description: Antiosteoporotic effect in OVX-induced Wistar rat osteoporosis model assessed as increase in trabecular thickness in left femur at 20 to 40 mg/kg/day, ig administered for 2 weeks by histomorhological analysis relative to control.
The subject of experiment [40] is Rattus norvegicus. Description: Antiosteoporotic effect in OVX-induced Wistar rat osteoporosis model assessed as increase in trabecular number in left femur at 20 to 40 mg/kg/day, ig administered for 2 weeks by histomorhological analysis relative to control.
The test system of experiment [41] is Rattus norvegicus. Description: Antiosteoporotic effect in OVX-induced Wistar rat osteoporosis model assessed as decrease in trabecular separation in left femur at 20 to 40 mg/kg/day, ig administered for 2 weeks by histomorhological analysis relative to control.
The test system of experiment [42] is Rattus norvegicus. Description: Antiosteoporotic effect in OVX-induced Wistar rat osteoporosis model assessed as increase in trabecular thickness in third lumbar vertebra at 20 to 40 mg/kg/day, ig administered for 2 weeks by histomorhological analysis relative to control.
Experiment [43] concerns Rattus norvegicus. Description: Antiosteoporotic effect in OVX-induced Wistar rat osteoporosis model assessed as increase in trabecular number in third lumbar vertebra at 20 to 40 mg/kg/day, ig administered for 2 weeks by histomorhological analysis relative to control.
In experiment [44] the test system is Rattus norvegicus. Description: Antiosteoporotic effect in OVX-induced Wistar rat osteoporosis model assessed as decrease in trabecular separation in third lumbar vertebra at 20 to 40 mg/kg/day, ig administered for 2 weeks by histomorhological analysis relative to control.

Active and inactive are the calls of the source. The calls are words filed in the database; no cut-off is given here.

As for `C#C[C@@]1(O)[C@H](O)C[C@H]2[C@@H]3CCc4cc(OC5CCCC5)ccc4[C@H]3CC[C@@]21C`, the outcome in the experiment with Rattus norvegicus [1], with Rattus norvegicus [2], in the experiment with Rattus norvegicus [3], in the experiment on Rattus norvegicus [4], in the experiment with Rattus norvegicus [5] and in the experiment on Rattus norvegicus [6] was Active. In addition, the outcome with Rattus norvegicus [7], with Rattus norvegicus [8], in the experiment with Rattus norvegicus [9], in the experiment with Rattus norvegicus [10], with Rattus norvegicus [11] and in the experiment on Rattus norvegicus [12] was Active. In addition, the outcome with Rattus norvegicus [13], in the experiment on Rattus norvegicus [14], with Rattus norvegicus [15], in the experiment with Rattus norvegicus [16], in the experiment with Rattus norvegicus [17] and with Rattus norvegicus [18] was Active. In addition, the result with Rattus norvegicus [19] and in the experiment with Rattus norvegicus [20] was Active.
Turning to `O=C1O[C@H]2[C@@H]3OC(=O)c4cc(O)c(O)c(O)c4-c4c(cc(O)c(O)c4O)C(=O)OC[C@H]2O[C@@H](OC(=O)c2cc(O)c(O)c(O)c2)[C@@H]3OC(=O)c2cc(O)c(O)c3c2[C@@H]2C1=CC(=O)[C@](O)(O3)C2(O)O`, the outcome in the experiment on Rattus norvegicus [21], with Rattus norvegicus [23], in the experiment with Rattus norvegicus [24], with Rattus norvegicus [25], with Rattus norvegicus [26] and in the experiment on Rattus norvegicus [27] was Active. Besides, the result with Rattus norvegicus [28], with Rattus norvegicus [29], with Rattus norvegicus [30], with Rattus norvegicus [31], in the experiment on Rattus norvegicus [32] and with Rattus norvegicus [33] was Active. Moreover, the outcome in the experiment on Rattus norvegicus [34], in the experiment on Rattus norvegicus [35], in the experiment with Rattus norvegicus [36], with Rattus norvegicus [37], with Rattus norvegicus [38] and in the experiment on Rattus norvegicus [39] was Active. The outcome in the experiment with Rattus norvegicus [40], with Rattus norvegicus [41], with Rattus norvegicus [42] and in the experiment on Rattus norvegicus [43] was Active. Moreover, the result in the experiment with Rattus norvegicus [22] and in the experiment on Rattus norvegicus [44] was inactive.
